Assay results as given in patent US5026687A (priority 1990, dated 1991).
“Also recorded” adds a separate entry of the source.

How the values were obtained:
[1] = test system: HIV p24 gag production; conditions: with 2',3'-dideoxyinosine, T-cell line
[2] = Conversion of 2',3'-dideoxyadenosine in patients; assay type: in vivo, human
Source text: In addition to the 37 patients mentioned above, another 20 patients have been treated for a total of 57.

[3] = beagle dog; previously shown; cited from earlier work
[4] = test system: patients with HIV infection; conditions: in vivo; cited from earlier work
[5] = test system: HIV (cytopathic effect, ATH8 T cell line); test: Protection of ATH8 T cell line against cytopathic effect of HIV (synergy of combinations); assay type: cell-based, human immunodeficiency virus; conditions: in vitro
[6] = even low doses, after patient has developed pancreatitis; cited from earlier work
[7] = human, in vivo
[8] = test system: patients with AIDS or AIDS-related complex; test: Clinical improvement (well being, energy, weight, duration of benefit) in treated patients; assay type: in vivo, human
Source text: Other patients had fatigue, loss of appetite, fevers, or recent weight loss. Many of these patients could not tolerate therapy with 3'-azido-2',3'-dideoxythymidine (AZT, zidovudine) because of nausea, malaise, or bone marrow toxicity, or were clinically deteriorating while on AZT treatment.

[9] = human, in vivo; remark: listed apart in the source
[10] = test system: human immunodeficiency virus-associated neurological dysfunction; test: Cognitive function in patients with HIV-associated neurological dysfunction
[11] = clinical; conditions: human, in vivo, iv, 3.2 mg/kg
[12] = test system: HIV; test: Serum HIV p24 antigen and HIV load in treated patients; assay type: in vivo
[13] = human, in vivo; remark: listed apart in the source
[14] = test system: patients with AIDS or AIDS-related complex; test: Immune parameters (circulating CD4+, CD8+, total lymphocytes, CD4+:CD8+ ratio) in treated patients; assay type: in vivo, human
[15] = test system: retroviral replication; conditions: cited from earlier work
[16] = test system: anergic patients; test: Cutaneous delayed type hypersensitivity reaction (skin test reactivity) of anergic patients; assay type: in vivo, human
[17] = test system: HIV-infected patients; test: Combination therapy of patients with 2',3'-dideoxyinosine and other agents; assay type: in vivo, human
Source text: Examples of such therapies are disclosed in the following examples.
These two drugs are alternated in this manner about week-by-week for about one year. […] These two drugs are alternated about week-by-week for about 6 months.

[18] = about 1 to 7 mg/kg/day intravenously then about 2 to 14 mg/kg/day orally
[19] = patients with HIV infection, intravenous or oral
[20] = with gancyclovir about 500 mg/day iv, 2 weeks

NC(=O)c1ncn([C@@H]2O[C@H](CO)[C@@H](O)[C@H]2O)n1 [Ribavirin]
effect on the anti-HIV effect of 2',3'-dideoxyinosine (HIV p24 gag production) [1]: induce enhancement of the anti-HIV effect

Nc1ncnc2c1ncn2[C@H]1CC[C@@H](CO)O1 [2',3'-dideoxyadenosine]
conversion to 2',3'-dideoxyinosine [2]: rapidly converted to 2',3'-dideoxyinosine | oral bioavailability [3]: can be orally bioavailable

Cc1cn([C@H]2C[C@H](N=[N+]=[N-])[C@@H](CO)O2)c(=O)[nH]c1=O [AZT, 3'-azido-2',3'-dideoxythymidine]
hepatic dysfunction [4]: can cause hepatic dysfunction | pancreatitis or peripheral neuropathy [4]: not known to cause pancreatitis or a peripheral neuropathy | toxicities and side effects [4]: anemia, other bone marrow suppression, and certain other toxicities such as myositis (muscle destruction or inflammation), headaches, nausea, vomiting, malaise, or seizures | synergy with 2',3'-dideoxyinosine, protection of ATH8 against cytopathic effect of HIV [5]: synergistic

Nc1ccn([C@H]2CC[C@@H](CO)O2)c(=O)n1 [2',3'-Dideoxycytidine]
synergy with 2',3'-dideoxyinosine, protection of ATH8 against cytopathic effect of HIV [5]: synergistic

Sc1ncnc2nc[nH]c12 [6-mercaptopurine]
pancreatitis on re-administration [6]: causes pancreatitis that returns acutely

OC[C@@H]1CC[C@H](n2cnc3c(O)ncnc32)O1 [2',3'-dideoxyinosine]
oral absorption and pharmacokinetics on chronic administration (chronic oral administration in a given person): remain fairly constant | oral absorption, non-fasting (oral, patient not in a fasting state): effectively absorbed | hepatitis after discontinuation [7]: the hepatitis resolved | recurrence of hepatitis after restart ([7]; po, 6.4 mg/kg/day): did not recur | clinical improvement ([8]; 35 evaluable patients): clinical improvement | patients reporting an improvement in well being ([8]; 37 patients, increase in energy, decreased sleep requirements, or increased appetite): approximately one half of the 37 patients | patients in whom the beneficial changes were seen ([8]; about 2 to 14 mg/kg/day orally with buffers or antacid): nearly all of the patients | persistence of clinical improvements ([8]; about 2 to about 14 mg/kg/day orally with antiacids or buffers): can persist over at least a year's period of time | average weight gain ([8]; first 6 weeks of therapy): 1.5 kg | energy (change) ([8]; intravenous or oral route): an increase in energy | weight (change) ([8]; intravenous or oral route): an increase in weight | pancreatitis [9]: can definitely cause pancreatitis | time for amylase to return to about normal [9]: about one | evidence of pancreatitis after restart ([9]; 6.4 mg/kg/day): no evidence of pancreatitis | recurrence of pancreatitis after restart ([9]; po, 6.4 mg/kg/day): did not recur | serum amylase after restart ([9]; po, 6.4 mg/kg/day): 80 U/liter | clinical symptoms of pancreatitis ([9]; po, 9.6 mg/kg/day): no clinical symptoms of pancreatitis | patients with improved cognitive function ([10]; 6 to 10 weeks of therapy, memory, speed and precision of doing tasks): 4 patients | cognitive dysfunction associated with HIV infection ([10]; intravenous or oral route): an improvement in cognitive dysfunction | memory quotient ([10]; one patient, about 9.6 mg/kg/day orally in 3 doses, from 111, after 6 weeks): 121 | Cmax [11]: ~10 µM | half-life [11]: ~40 min | replication of HIV ([12]; 35 evaluable patients): a decrease in the replication in their HIV | patients with no detectable serum HIV p24 antigen ([12]; after about one year, about 6.4 to 9.6 mg/kg/day oral): two | serum HIV p24 antigen (change) ([12]; by week 6, about 1 to 7 mg/kg/day iv then about 2 to 14 mg/kg/day orally, patients with detectable p24): substantial decreases in their serum HIV p24 antigen | patients with decline in serum HIV p24 antigen ([12]; first 6 weeks, about 6.4 to 9.6 mg/kg/day orally, 3 patients with detectable p24 before therapy): All 3 had a decline | reduction of p24 antigen detectable in serum ([12]; intravenous or oral route): a reduction of the amount of p24 antigen | serum HIV p24 antigen in patients viremic in the face of AZT ([12]; patients viremic in the face of AZT therapy): a fall in serum HIV p24 antigen | load of HIV in circulating lymphocytes by polymerase chain reaction ([12]; while receiving 2',3'-dideoxyinosine): a decrease in the load of HIV in their circulating lymphocytes | cumulative dose exceeded without neuropathy appearing [13]: > 1.5 gm/kg | neuropathy after prompt stopping in warning phase [13]: the neuropathy subsided | patients still having increases in circulating CD4+ lymphocytes ([14]; 3.2 to 4.8 mg/kg/day iv about 2 weeks, then about 6.4 to 9.6 mg/kg/day orally, about one year): 4 of the first 7 patients | number of circulating CD4+ lymphocytes (change) [14, 18]: substantial increases in the number of circulating CD4+ lymphocytes | number of circulating CD8+ lymphocytes (change) [14, 18]: increases in the number of circulating CD8+ lymphocytes | number of circulating total lymphocytes (change) [14, 18]: increases in the number of circulating total lymphocytes | time within which lymphocyte changes were observed ([14]; about 2 to 14 mg/kg/day orally after intravenous, within about): ≤ 2 weeks | immune parameters improvement ([14]; below 2 mg/kg/day orally): not as consistently seen | duration of lymphocyte changes ([14]; in many cases, about 2 to 14 mg/kg/day orally): at least one | immune function ([14]; intravenous or oral route, long periods of time): improvement in immune function | immune parameters improvement ([14]; more than 14 mg/kg/day orally, some patients): improvements in immune parameters | CD4+ lymphocytes after treatment ([14]; one patient, baseline about 31, 1.6 mg/kg/day iv about 2 weeks, then oral 3.2 (10 weeks), 4.8 (21 weeks), 9.6 mg/kg/day (31 weeks)): about 90 CD4+ lymphocytes/mm^3 | CD4+ increases by prior AZT therapy ([14]; patients who had previously received 4 months or less of AZT): most consistently seen | number of circulating CD4+ lymphocytes (change) [14, 19]: an increase in the number of circulating CD4+ lymphocytes; also recorded: increases in their circulating CD4+ cells | number of circulating CD8+ lymphocytes (change) [14, 19]: an increase in the number of CD8+ lymphocytes; also recorded: increases in the number of CD8+ lymphocytes | number of circulating total lymphocytes (change) [14, 19]: an increase in the number of circulating total lymphocytes; also recorded: increases in the number of total lymphocytes | CD8+ lymphocytes after treatment ([14]; same first patient, baseline 189): about 302 CD8+ lymphocytes/mm^3 | total lymphocytes after treatment ([14]; same first patient, baseline 405): about 816 total lymphocytes/mm^3 | CD8+ lymphocytes after treatment ([14]; second patient, baseline 844, about one year): about 1256 CD8+ lymphocytes/mm^3 | total lymphocytes after treatment ([14]; second patient, baseline 1270, about one year): about 1794 total lymphocytes/mm^3 | CD4+ lymphocytes after treatment ([14]; second patient, baseline about 219, 4.8 mg/kg/day iv about 2 weeks then 9.6 mg/kg/day oral, about one year): about 359 CD4+ lymphocytes/mm^3 | suppression of retroviral replication [15]: known to suppress retroviral replication | anergic patients developing skin test reactivity to at least one test antigen ([16]; after approximately 6 weeks of therapy): 7 of these 23 (anergic patients | cutaneous delayed type hypersensitivity reaction of anergic patients ([16]; some patients): regained the ability to mount a cutaneous delayed type hypersensitivity reaction to at least one test antigen | synergy with dextran sulfate, protection of ATH8 against cytopathic effect of HIV ([5]; with dextran sulfate): synergistic | outcome of combination with AZT ([17]; AZT 300 mg/day with ddI 3.2 mg/kg/day, or AZT 600 mg/day alternating weekly with ddI 6.4 mg/kg/day, about one year): Beneficial effects are seen | outcome of combination with ddC ([17]; ddC 0.015 mg/kg/day with ddI 3.2 mg/kg/day, or ddC 0.03 mg/day alternating weekly with ddI 6.4 mg/kg/day, about 6 months): Beneficial effects are seen | outcome of combination with ribavirin ([17]; ddI 3.2 mg/kg/day orally, ribavirin 100 to 2400 mg/day orally, about 6 months): Beneficial effects are seen | clinical course with pentamidine prophylaxis ([17]; ddI 4.8 mg/kg/day iv 2 weeks then 9.6 mg/kg/day orally 56 weeks, 300 mg pentamidine isothionate inhaled monthly): clinically did well | outcome of combination with dextran sulfate ([17]; ddI 6.4 mg/kg/day orally, dextran sulfate 2700 mg/day iv, about 6 months): Beneficial effects are seen | outcome of combination with rCD4 ([17]; ddI 6.4 mg/kg/day orally, rCD4 300 μg/kg/day iv, 1 year): Beneficial effects are seen | outcome of combination with interferon alpha ([17]; ddI 1 to 14 mg/kg/day orally with 0.5 to 10 million units interferon alpha daily, about 3 months, Kaposi's sarcoma): Beneficial effects are seen | outcome of combination with IL-2 ([17]; ddI 1 to 14 mg/kg/day orally with 25,000 to 1 million U/day IL-2, about 3 months): Beneficial effects are seen | development of Pneumocystis carinii pneumonia ([17]; with 300 mg pentamidine isothionate inhaled monthly, about 56 weeks): did not develop Pneumocystis carinii pneumonia | recurrence of cytomegalovirus retinitis ([17]; with acyclovir 4800 mg/day, 4 weeks): the retinitis has not recurred | increase in weight [17, 20]: about 2.2 kg | recurrence of cytomegalovirus retinitis [17, 20]: has not had a recurrence of the retinitis | patient's report ([17]; with gancyclovir about 500 mg/day iv, ddI 6.4 mg/kg/day orally, 2 weeks): reports feeling better
